Measured values taken from patent publication US7241799B2, “Cannabimimetic indole derivatives” (University of Connecticut, priority 1999, dated 2007).
Where two headings read alike, the source gives them in different places.

Experiments:
[1] = biological target: T1, CB1 receptor (Rattus norvegicus, UniProt P20272); assay: CB1 receptor binding, [3H] CP-55,940 displacement, rat forebrain membranes; conditions: for Ki: rat forebrain membranes, 0.8 nM [3H] CP-55,940, read-out: Kl CB1; for selectivity for the CB1 receptor: binding selectivity CB1 versus CB2, from the results in the TABLES
T1 construct: membranes were prepared from rat forebrain membranes; from tissue; host or cells: rat forebrain
T1 sequence (P20272 whole entry): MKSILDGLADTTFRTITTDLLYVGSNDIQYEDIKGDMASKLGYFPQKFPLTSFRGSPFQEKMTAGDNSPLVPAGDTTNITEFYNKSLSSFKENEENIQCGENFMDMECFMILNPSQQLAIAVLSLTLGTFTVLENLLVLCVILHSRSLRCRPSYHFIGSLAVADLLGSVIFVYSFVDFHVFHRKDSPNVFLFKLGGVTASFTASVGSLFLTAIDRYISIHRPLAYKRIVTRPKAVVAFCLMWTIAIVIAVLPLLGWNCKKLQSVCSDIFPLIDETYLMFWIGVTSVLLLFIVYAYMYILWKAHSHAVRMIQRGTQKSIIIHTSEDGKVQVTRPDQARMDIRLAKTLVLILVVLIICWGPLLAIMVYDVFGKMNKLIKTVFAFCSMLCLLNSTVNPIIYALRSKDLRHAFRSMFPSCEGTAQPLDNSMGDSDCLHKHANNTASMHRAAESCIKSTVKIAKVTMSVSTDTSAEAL
Method: (§1) The materials were tested for CB2 receptor binding affinity and for CB1 receptor affinity (to determine selectivity for the CB2 receptor). As used herein, “binding affinity” is represented by the IC50 value which is the concentration of an analog required to occupy the 50% of the total number (Bmax) of the receptors. The lower the IC50 value the higher the binding affinity.
For the CB1 receptor binding studies, membranes were prepared from rat forebrain membranes according to the procedure of P. R. Dodd et al, A Rapid Method for Preparing Synaptosomes: Comparison with Alternative Procedures, Brain Res., 107–118 (1981). The binding of the novel analogues to the CB1 cannabinoid receptor was assessed as described in W. A. Devane et al, Determination and Characterization of a Cannabinoid Receptor in a Rat Brain, Mol. Pharmacol., 34, 605–613 (1988) and A. Charalambous et al, 5′-azido Δ^8 THC: A Novel Photoaffinity Label for the Cannabinoid Receptor, J. Med. Chem., 35, 3076–3079 (1992) with the following changes. The above articles are incorporated by reference herein.
Membranes, previously frozen at −80° C., were thawed on ice. To the stirred suspension was added three volumes of TME (25 mM Tris-HCl buffer, 5 mM MgCl2 and 1 mM EDTA) at a pH 7.4. The suspension was incubated at 4° C. for 30 min. At the end of the incubation, the membranes were pelleted and washed three times with TME.
(§2) The treated membranes were subsequently used in the binding assay described below. Approximately 30 μg of membranes were incubated in silanized 96-well microtiter plate with TME containing 0.1% essentially fatty acid-free bovine serum albumin (BSA), 0.8 nM [^3H] CP-55,940, and various concentrations of test materials at […] for 1 hour. The samples were filtered using Packard Filtermate 196 and Whatman GF/C filterplates and washed with wash buffer (TME) containing 0.5% BSA. Radioactivity was detected using MicroScint 20 scintillation cocktail added directly to the dried filterplates, and the filterplates were counted using a Packard Instruments Top-Count. Nonspecific binding was assessed using 100 nM CP-55,940. Data collected from three independent experiments performed with duplicate determinations was normalized between 100% and 0% specific binding for [^3H] CP-55,940, determined using buffer and 100 nM CP-55,940. The normalized data was analyzed using a 4-parameter nonlinear logistic equation to yield IC50 values. Data from at least two independent experiments performed in duplicate was used to calculate IC50 values which were converted to Ki values using the assumptions of Cheng et al, Relationship Between the Inhibition Constant (Ki) and the concentration of Inhibitor which causes 50% Inhibition (IC50) of an Enzymatic Reaction, Biochem. Pharmacol., 22, 3099–3102, (1973), which is incorporated by reference herein.

[2] = biological target: T2, CB2 receptor (Mus musculus, UniProt P47936); assay: CB2 receptor binding, [3H] CP-55,940 displacement, mouse spleen membranes; conditions: for Ki: mouse spleen membranes, [3H] CP-55,940, read-out: Kl CB2 (converted); for selectivity for the CB2 receptor: binding selectivity CB2 versus CB1, from the results in the TABLES
T2 construct: membranes were prepared from frozen mouse spleen; from tissue; host or cells: mouse spleen
T2 sequence (P47936 whole entry): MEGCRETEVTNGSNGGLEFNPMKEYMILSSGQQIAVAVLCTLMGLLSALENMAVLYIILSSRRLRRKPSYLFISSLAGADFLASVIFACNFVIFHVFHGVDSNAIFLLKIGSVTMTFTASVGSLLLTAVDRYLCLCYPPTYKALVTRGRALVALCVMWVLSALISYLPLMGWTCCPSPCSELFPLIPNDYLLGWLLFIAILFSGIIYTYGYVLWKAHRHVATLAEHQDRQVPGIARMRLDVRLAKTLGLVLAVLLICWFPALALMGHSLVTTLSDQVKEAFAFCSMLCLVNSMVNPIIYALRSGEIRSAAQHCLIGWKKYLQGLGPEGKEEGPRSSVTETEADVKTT
Method: as §1, §2
For the CB2 receptor binding studies, membranes were prepared from frozen mouse spleen essentially according to the procedure of P. R. Dodd et al, A Rapid Method for Preparing Synaptosomes: Comparison with Alternative Procedures, Brain Res., 226, 107–118 (1981) which is incorporated by reference herein. Silanized centrifuge tubes were used throughout to minimize receptor loss due to adsorption. The CB2 binding assay was conducted in the same manner as for the CB1 binding assay. The binding affinities (Ki) were also expressed in nanomoles (nM).

SMILES	Ki ([1]; TABLE 2) [nM]	Ki ([2]; TABLE 2) [nM]	selectivity for the CB2 receptor [2]	Ki ([1]; TABLE 1, racemic samples) [nM]	Ki ([2]; TABLE 1, racemic samples) [nM]	selectivity for the CB1 receptor [1]
Cc1ccc(S(=O)(=O)OCCCn2cc(C(=O)c3cccc4ccccc34)c3ccccc32)cc1 [AM1289]	360	78.6	high selectivity for the CB2 receptor			
O=C(c1ccc(N=C=S)c2ccccc12)c1cn(CCCCI)c2ccccc12 [AM2216]	42.4	213				
O=C(c1cccc2ccccc12)c1cn(CCCCCO)c2cc(I)ccc12 [AM1238]	3.1	17.3				
CCCCCn1cc(C(=O)c2cc(N=C=S)ccc2I)c2ccccc21 [AM1204]	5660	3350				
O=C(c1cccc2ccccc12)c1cn(CCCN=C=S)c2ccccc12 [AM1294]	283	237				
CN1CCCCC1Cn1cc(C(=O)c2cccc3ccccc23)c2ccc(N=C=S)cc21 (racemic) [AM1217]				255	81.5	
N#CCCCCn1cc(C(=O)c2cccc3ccccc23)c2ccccc21 [AM2232]	0.28	1.48				
O=C(c1cccc2ccccc12)c1cn(CCCCCI)c2ccccc12 [AM2203]	7.8	45.8				
Cc1c(C(=O)c2cccc3ccccc23)c2ccc(N=[N+]=[N-])cc2n1CC1CCCCN1C (racemic) [AM1231]				31.2	34.2	
O=C(c1cccc2ccccc12)c1cn(CCCCCO)c2ccccc12 [AM2202]	33.1	111				
CC(=O)OCCCCCn1c(C)c(C(=O)c2ccccc2I)c2ccccc21 [AM689]	2280	1020				
CN1CCCCC1Cn1cc(C(=O)c2cccc3ccccc23)c2ccccc21 (stereo not drawn) [AM1220]				3.88	73.4	
Cc1c(C(=O)c2ccccc2I)c2ccc(N=C=S)cc2n1CC1CCCCN1C (racemic) [AM1216]				210	25.2	
Cc1c(C(=O)c2ccccc2I)c2ccccc2n1CCCCCO [AM690]	4850	1970				
Cc1c(C(=O)c2ccccc2I)c2ccccc2n1CCCCCN=C=S [AM2230]	195	29.5	high selectivity for the CB2 receptor			
O=C(c1cccc2ccccc12)c1cn(CCCCCF)c2cc(I)ccc12 [Am1230]	1.1	2.4				
CCCCCn1cc(C(=O)c2cc(N=[N+]=[N-])ccc2I)c2ccccc21 [AM1205]	117	196				
CN1CCCCC1Cn1cc(C(=O)c2ccc(I)c3ccccc23)c2ccc(N=[N+]=[N-])cc21 (racemic) [AM2212]				31	2.9	
CCCCCn1cc(C(=O)c2cc(N)ccc2I)c2ccccc21 [AM1203]	63.6	88.9				
Cc1ccc(S(=O)(=O)OCCCCCn2cc(C(=O)c3ccccc3I)c3ccccc32)cc1 [AM697]	1310	1120				
O=C(c1ccccc1I)c1cn(CCCCCI)c2ccccc12 [AM698]	136	315				
Cc1c(C(=O)c2cccc3ccccc23)c2ccc([N+](=O)[O-])cc2n1CC1CCCCN1C (stereo not drawn) [AM1221]				52.3	0.28	
CCCCCn1cc(C(=O)c2cc(I)ccc2I)c2ccccc21 [AM1206]	105	150				
CN1CCCCC1Cn1cc(C(=O)c2cc(N=C=S)ccc2I)c2ccc(N=C=S)cc21 (racemic) [AM2223]				64.8	29.9	
O=C(c1cccc2ccccc12)c1cn(CCCCCN=C=S)c2ccccc12 [AM2204]	7.5	24.4				
CC(=O)OCCCCCn1cc(C(=O)c2ccccc2I)c2ccccc21 [AM692]	2660	1520				

SMILES	Ki ([1]; TABLE 2) [nM]	Ki ([2]; TABLE 2) [nM]	selectivity for the CB2 receptor [2]	Ki ([1]; TABLE 1, racemic samples) [nM]	Ki ([2]; TABLE 1, racemic samples) [nM]	selectivity for the CB1 receptor [1]
CN1CCCCC1Cn1cc(C(=O)c2ccc([N+](=O)[O-])c3ccccc23)c2ccccc21 (stereo not drawn) [AM1299]				12.4	13.5	
Cc1c(C(=O)c2ccccc2I)c2ccccc2n1CCCCCF [AM2225]	5.97	3.8				
Cc1ccc(S(=O)(=O)OCCCCCn2c(C)c(C(=O)c3ccccc3I)c3ccccc32)cc1 [AM2227]	1020	2970				
O=C(c1cccc2ccccc12)c1cn(CCCCN=C=S)c2ccccc12 [AM1291]	2960	1800				
CN1CCCCC1Cn1cc(C(=O)C23CC4CC(CC(C4)C2)C3)c2ccccc21 (stereo not drawn) [AM1248]				100	332	
CCCCCn1cc(C(=O)c2ccccc2I)c2ccccc21 [AM679]	13.5	49.5				
Nc1ccc2c(C(=O)c3cccc4ccccc34)cn(CCCCCO)c2c1 [AM1237]	837	244	high selectivity for the CB2 receptor			
CC(=O)OCCCCCn1cc(C(=O)c2cccc3ccccc23)c2ccc(N)cc21 [AM1236]	1130	559				
O=C(c1ccc([N+](=O)[O-])c2ccccc12)c1cn(CCCCI)c2ccccc12 [AM2210]	1.8	11.3				
O=C(c1cccc2ccccc12)c1cn(CCCCI)c2ccccc12 [AM1288]	1.3	10.5				high selectivity for the CB1 receptor
CC(=O)OCCCCn1cc(C(=O)c2cccc3ccccc23)c2ccccc21 [AM1282]	133	101				
O=C(c1ccccc1I)c1cn(CCCCCF)c2ccccc12 [AM694]	0.08	1.44				high selectivity for the CB1 receptor
O=C(c1cccc2ccccc12)c1cn(CCCCF)c2ccccc12 [AM1295]	2.5	30.7				high selectivity for the CB1 receptor
O=C(c1cccc2ccccc12)c1cn(CCCCCF)c2cc([N+](=O)[O-])ccc12 [AM1235]	1.5	20.4				high selectivity for the CB1 receptor
O=C(c1ccccc1I)c1cn(CCCCCN=C=S)c2ccccc12 [AM1201]	106	110				
CN1CCCCC1Cn1cc(C(=O)c2cccc3ccccc23)c2ccc(N=[N+]=[N-])cc21 (racemic) [AM1224]				20.2	0.73	
O=C(c1cccc2ccccc12)c1cn(CCCCO)c2ccccc12 [AM1283]	117	196				
CC(=O)OCCCn1cc(C(=O)c2cccc3ccccc23)c2ccccc21 [AM1284]	127	103				
CCCCCCn1c(C)c(C(=O)c2ccccc2I)c2ccccc21 [AM682]	332	693				
CN1CCCCC1Cn1cc(C(=O)c2cc3ccc4cccc5ccc(c2)c3c45)c2ccccc21 (racemic) [AM1253]				60.3	126	
CCCCCn1c(C)c(C(=O)c2ccc(N(C)C)c3ccccc23)c2ccccc21 [AM1256]	4.74	18.6				
N#CCCCCn1cc(C(=O)c2cccc3ccccc23)c2ccc([N+](=O)[O-])cc21 [AM2231]	4.9	23.9				
CN1CCCCC1Cn1cc(C(=O)c2cccc3ccccc23)c2ccc([N+](=O)[O-])cc21 (racemic) [AM1218]				11.2	3.98	
O=C(c1cccc2ccccc12)c1cn(CCCCCO)c2cc([N+](=O)[O-])ccc12 [AM1234]	77.6	197				
Cc1ccc(S(=O)(=O)OCCCCn2cc(C(=O)c3cccc4ccccc34)c3ccccc32)cc1 [AM1286]	1510	1290				
O=C(c1cccc2ccccc12)c1cn(CCCCCF)c2ccccc12 [AM2201]	1	2.6				
